Source: PMC8341778, “Deciphering the substrate recognition mechanisms of the heparan sulfate 3-O-sulfotransferase-3” (RSC Chemical Biology, 2021)

Experiments:
3-OST-3 [1] = biological target: T1, 3-OST-3 (Homo sapiens, UniProt Q9Y663); experiment: crystal structure of ternary complex, […] Å; format: binding; conditions: with PAP; sodium ion at saccharides f and g
T1 construct: gene HS3ST3A1; purified enzyme; two molecules in the asymmetric unit
T1 sequence (Q9Y663 1-406): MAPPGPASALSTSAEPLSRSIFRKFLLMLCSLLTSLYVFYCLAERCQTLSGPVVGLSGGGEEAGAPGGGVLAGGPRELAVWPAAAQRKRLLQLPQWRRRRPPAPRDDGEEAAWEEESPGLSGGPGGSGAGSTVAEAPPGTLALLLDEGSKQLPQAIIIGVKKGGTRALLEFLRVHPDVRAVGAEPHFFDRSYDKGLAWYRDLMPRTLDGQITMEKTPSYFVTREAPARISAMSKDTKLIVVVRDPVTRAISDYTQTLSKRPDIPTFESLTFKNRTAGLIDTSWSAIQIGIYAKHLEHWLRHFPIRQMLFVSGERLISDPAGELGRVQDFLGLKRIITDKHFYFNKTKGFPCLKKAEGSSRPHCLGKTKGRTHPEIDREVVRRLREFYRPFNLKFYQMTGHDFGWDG

3-OST-3 [2] = biological target: T1, 3-OST-3; experiment: isothermal titration calorimetry; format: binding
3-OST-3 [3] = biological target: T1, 3-OST-3; experiment: inhibition of sulfotransferase activity; format: biochemical

| SMILES | crystal structure of ternary complex, 2.34 Å (3-OST-3 [1]) | Kd (3-OST-3 [2]) [nM] | IC50 (3-OST-3 [3]; product inhibition, 8-mer 1 sulfation) [nM] | IC50 (3-OST-3 [3]; substrate inhibition, compound is itself slowly sulfated) [nM] | IC50 (3-OST-3 [3]; product inhibition) [nM] |
| --- | --- | --- | --- | --- | --- |
| CC(=O)N[C@H]1[C@@H](O[C@H]2[C@H](O)[C@@H](O)[C@H](O[C@H]3[C@H](O)[C@@H](NS(=O)(=O)O)[C@@H](O[C@H]4[C@H](O)[C@@H](OS(=O)(=O)O)[C@H](O[C@H]5[C@H](O)[C@@H](NS(=O)(=O)O)[C@@H](O[C@H]6[C@H](O)[C@@H](OS(=O)(=O)O)[C@H](O[C@H]7[C@H](O)[C@@H](NS(=O)(=O)O)[C@@H](O[C@H]8[C@H](O)[C@@H](O)[C@H](Oc9ccc([N+](=O)[O-])cc9)O[C@@H]8C(=O)O)O[C@@H]7CO)O[C@H]6C(=O)O)O[C@@H]5CO)O[C@H]4C(=O)O)O[C@@H]3CO)O[C@@H]2C(=O)O)O[C@H](CO)[C@@H](O)[C@@H]1O [8-mer 1] | crystal structures of 3-OST-3 in the presence of PAP, the sulfo donor product analog |  |  |  |  |
| CC(=O)N[C@H]1[C@@H](O[C@H]2[C@H](O)[C@@H](O)[C@H](O[C@H]3[C@H](O)[C@@H](NS(=O)(=O)O)[C@@H](O[C@H]4[C@H](O)[C@@H](OS(=O)(=O)O)[C@H](O[C@H]5[C@H](OS(=O)(=O)O)[C@@H](NS(=O)(=O)O)[C@@H](O[C@H]6[C@H](O)[C@@H](OS(=O)(=O)O)[C@H](O[C@H]7[C@H](O)[C@@H](NS(=O)(=O)O)[C@@H](O[C@H]8[C@H](O)[C@@H](O)[C@H](Oc9ccc([N+](=O)[O-])cc9)O[C@@H]8C(=O)O)O[C@@H]7CO)O[C@H]6C(=O)O)O[C@@H]5CO)O[C@H]4C(=O)O)O[C@@H]3CO)O[C@@H]2C(=O)O)O[C@H](CO)[C@@H](O)[C@@H]1O [8-mer 2] |  | 74000 | ~1000 |  |  |
| CC(=O)N[C@H]1[C@@H](O[C@H]2[C@H](O)[C@@H](O)[C@H](O[C@H]3[C@H](O)[C@@H](NS(=O)(=O)O)[C@@H](O[C@H]4[C@H](O)[C@@H](OS(=O)(=O)O)[C@H](O[C@H]5[C@H](O)[C@@H](NS(=O)(=O)O)[C@@H](O[C@H]6[C@H](O)[C@@H](OS(=O)(=O)O)[C@H](O[C@H]7[C@H](O)[C@@H](NS(=O)(=O)O)[C@@H](O[C@H]8[C@H](O)[C@@H](O)[C@H](Oc9ccc([N+](=O)[O-])cc9)O[C@@H]8C(=O)O)O[C@@H]7COS(=O)(=O)O)O[C@H]6C(=O)O)O[C@@H]5COS(=O)(=O)O)O[C@H]4C(=O)O)O[C@@H]3COS(=O)(=O)O)O[C@@H]2C(=O)O)O[C@H](COS(=O)(=O)O)[C@@H](O)[C@@H]1O [8-mer 3] |  | 10000 |  | 150 |  |
| CC(=O)N[C@H]1[C@@H](O[C@H]2[C@H](O)[C@@H](O)[C@H](O[C@H]3[C@H](O)[C@@H](NS(=O)(=O)O)[C@@H](O[C@H]4[C@H](O)[C@@H](OS(=O)(=O)O)[C@H](O[C@H]5[C@H](OS(=O)(=O)O)[C@@H](NS(=O)(=O)O)[C@@H](O[C@H]6[C@H](O)[C@@H](OS(=O)(=O)O)[C@H](O[C@H]7[C@H](O)[C@@H](NS(=O)(=O)O)[C@@H](O[C@H]8[C@H](O)[C@@H](O)[C@H](Oc9ccc([N+](=O)[O-])cc9)O[C@@H]8C(=O)O)O[C@@H]7COS(=O)(=O)O)O[C@H]6C(=O)O)O[C@@H]5COS(=O)(=O)O)O[C@H]4C(=O)O)O[C@@H]3COS(=O)(=O)O)O[C@@H]2C(=O)O)O[C@H](COS(=O)(=O)O)[C@@H](O)[C@@H]1O [8-mer 4] |  | 4700 |  |  | 12 |
